In paper PMC12990037, “Discovery of Two Structurally Distinct Classes of Inhibitors Targeting the Nuclease MUS81 and Enhancing Efficacy of Chemotherapy in Cancer Cells” (Journal of Medicinal Chemistry, 2026):

Legend:
U2OS, HEK293, and CAL51 = test: Cell proliferation assay (CyQUANT), combination with cisplatin; type: cell-based; details: cisplatin alone, 5 days
Protocol: 7 MUS81 inhibitors synergize with cisplatin to reduce cancer cell viability. (A,B) U2OS cells were treated with DMSO, MU262, or MU876 at the indicated concentrations in combination with a range of cisplatin (0–5 μM) for 96–120 h. Cell viability was assessed by the Cy-Quant assay. The survival was normalized to the DMSO-treated control. Graphs were generated in Graphpad Prism using the nonlinear regression fitting model. n ≥ 3, error bars represent s.d. (C) CAL51 WT cells were treated with DMSO, MU262, or MU876 at the indicated concentrations at each passage over 2 weeks. Cisplatin (12 μM) was added for the last 24 h before harvest. DNA damage was assessed by quantifying γH2AX foci using fluorescence microscopy and CellProfiller software. Data were visualized plotted in R software. Red markers represent the median of γH2AX foci number per nucleus; blue markers represent the percentage of cells with ≥20 γH2AX foci per nucleus. n = 3, error bars represent s.d.; ****p <0.0001 (unpaired, two-tailed t-test). TEXT PRINTED IN THE PICTURE: (C) D: γH2AX foci: 2.4 (DMSO); γH2AX foci: 59.6 (Cisplatin) | (C) MU262: γH2AX foci: 2.3 (1 μM; DMSO); γH2AX foci: 3 (2 μM; DMSO); γH2AX foci: 55.4 (1 μM; Cisplatin); γH2AX foci: 43.2 (2 μM; Cisplatin) | (C) MU876: γH2AX foci: 2.8 (0.25 μM; DMSO); γH2AX foci: 0.9 (0.5 μM; DMSO); γH2AX foci: 48.2 (0.25 μM; Cisplatin); γH2AX foci: 42.6 (0.5 μM; Cisplatin) DOUBTS OF THE COPYIST ABOUT THIS PICTURE: Panel C: the numbers in the blue markers have no measure or unit of their own printed in the picture; the axis title 'γH2AX foci' is given as the measure, but the numbers may stand for another quantity. / Panel C: 'D' is a control column with no concentration; it may not count as a substance. / Panel C: small white print on blue markers; 59.6, 55.4, 48.2, 43.2, 42.6, 2.8 and 0.9 are best readings (3, 5, 6, 8 and 9 are hard to tell apart).
CAL51 WT, CAL51 MUS81^–/–, U2OS, and HEK293 cells were seeded in a 96-well plate and treated with the respective concentration of selected inhibitors. […]

MUS81 = system: MUS81; parameters: method as in PMID 37352577; details: FRET-based DNA cleavage assay; cited from earlier work

Row | Structure (SMILES) | cell viability (U2OS, HEK293, and CAL51) | IC50 (MUS81) [µM]
1 | N.N.[Cl][Pt][Cl] [cisplatin, reference compound] | dose-dependent decrease of viability | 
2 | O=C(N/N=C/c1cc(O)c(O)cc1O)c1cc2ccccc2cc1O [Dyngo-4a] |  | 0.57
